These are literature values, as cited in patent publication US20250064831A1 (Acerus Biopharma Inc., priority 2012, published 2025).

Molecules are shown by their SMILES.

The conditions of data set [1]: polyethylene glycol (200 mg/ml), high variations.
For data set [2] the following is noted: progesterone/cyclodextrin powder mixtures, nasal.
For data set [3] the following is noted: in vivo.

`CC(=O)[C@H]1CC[C@H]2[C@@H]3CCC4=CC(=O)CC[C@]4(C)[C@H]3CC[C@]12C` [progesterone]: in data set [1], the “duration of serum level” value is given as “at least 8 hours”. Also, the serum level decrease in data set [2] is listed as ≤ 20 min.

As for `CN(C)CC(=O)O[C@H]1CC[C@H]2[C@@H]3CCC4=CC(=O)CC[C@]4(C)[C@H]3CC[C@]12C` [testosterone 17β-N,N-dimethylglycinate], the elimination half-lives entry in data set [3] is reported as “about 55 min”.
